Tests used:
[1] = Solubility of the compound; assay type: physicochemical
Hepatitis C virus [2] = experiment: Antiviral activity against wild type HCV genotype 1a infected in human HuH7 cells after 48 hrs by luciferase reporter gene assay; assay type: functional, organism-based, Hepacivirus hominis; details: subtype 1a, Huh-7, 48 h
Hepatitis C virus [3] = experiment: Antiviral activity against wild type HCV genotype 1b infected in human HuH7 cells after 48 hrs by luciferase reporter gene assay; assay type: functional, organism-based, Hepacivirus hominis; details: Huh-7, 48 h
Hepatitis C virus [4] = experiment: Displacement of [3H]-3-(1-(3-chloro-6-isopropyl-8-(trifluoromethyl)imidazo[1,2-a]pyridine-2-carbonyl)piperidin-4-yl)oxazolidin-2-one from HCV genotype 1b His6-tagged NS4B expressed in baculovirus infected Sf9 cells after overnight incubation; design: species or system Hepatitis C virus subtype 1b
Hepatitis C virus [5] = experiment: Binding affinity to HCV genotype 1b His6-tagged NS4B expressed in baculovirus infected Sf9 cells after overnight incubation; details: Hepatitis C virus subtype 1b, tested as the 3H-labelled form
[6] = Volume of distribution at steady state in beagle dog at 1 mg/kg, iv; assay type: ADME, organism-based, Canis lupus familiaris; design: dose 1 mg/kg, route intravenous; details: in vivo, read-out: Vdss
Liver microsomes [7] = experiment: Drug metabolism in human liver microsomes assessed as reactive metabolite formation at 10 uM after 30 mins by glutathione trapping assay; assay type: ADME, Microsome; details: 0.5 h
[8] = Half life in beagle dog at 5 mg/kg, po; assay type: ADME, organism-based, Canis lupus familiaris; design: dose 5 mg/kg, route oral; details: in vivo
Cytochrome P450 2C19 = Cytochrome P450 2C19 (Homo sapiens, UniProt P33261); experiment: Inhibition of CYP2C19 in human liver microsomes after 10 mins by LC/MS/MS analysis; assay type: ADME, Microsome
[9] = AUC (0 to 24 hrs) in Sprague-Dawley rat at 5 mg/kg, po; assay type: ADME, organism-based; design: time < 24 hr, dose 5 mg/kg, route oral; details: plasma
Cytochrome P450 1A2 = biological target: T1, Cytochrome P450 1A2 (Homo sapiens, UniProt P05177); experiment: Inhibition of CYP1A2 in human liver microsomes after 10 mins by LC/MS/MS analysis; assay type: ADME, Microsome
T1 sequence (P05177 whole entry): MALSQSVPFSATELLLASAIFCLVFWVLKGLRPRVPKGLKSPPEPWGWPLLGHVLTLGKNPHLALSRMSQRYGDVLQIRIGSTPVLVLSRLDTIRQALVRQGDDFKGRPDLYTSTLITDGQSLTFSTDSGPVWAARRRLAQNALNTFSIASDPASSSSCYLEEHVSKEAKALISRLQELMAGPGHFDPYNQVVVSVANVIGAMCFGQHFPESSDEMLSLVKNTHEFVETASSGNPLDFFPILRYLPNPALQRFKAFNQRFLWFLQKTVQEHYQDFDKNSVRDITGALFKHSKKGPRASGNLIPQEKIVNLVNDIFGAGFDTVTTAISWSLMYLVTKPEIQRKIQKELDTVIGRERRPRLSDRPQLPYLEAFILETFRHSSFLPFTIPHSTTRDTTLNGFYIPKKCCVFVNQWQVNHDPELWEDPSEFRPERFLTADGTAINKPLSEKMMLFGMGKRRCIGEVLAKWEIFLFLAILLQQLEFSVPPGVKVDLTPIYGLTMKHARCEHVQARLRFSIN

[10] = Oral bioavailability in Sprague-Dawley rat at 5 mg/kg; assay type: ADME, organism-based; details: in vivo
[11] = Half life in Sprague-Dawley rat at 5 mg/kg, po; assay type: ADME, organism-based; design: dose 5 mg/kg, route oral; details: in vivo
Hepatitis C virus [12] = experiment: Ratio of EC50 for HCV genotype 1b expressing NS4B H94N mutant to EC50 for wild type HCV genotype 1b; assay type: functional, Hepacivirus hominis
Cytochrome P450 2D6 = Cytochrome P450 2D6 (Homo sapiens, UniProt P10635); experiment: Inhibition of CYP2D6 in human liver microsomes after 10 mins by LC/MS/MS analysis; assay type: ADME, Microsome
Cytochrome P450 3A4 = Cytochrome P450 3A4 (Homo sapiens, UniProt P08684); experiment: Inhibition of CYP3A4 in human liver microsomes after 7 mins by LC/MS/MS analysis; assay type: ADME, Microsome
Hepatitis C virus [13] = experiment: Antiviral activity against HCV genotype 1b expressing NS4B V105M mutant stably infected in human HuH7 cells after 48 hrs by luciferase reporter gene assay; assay type: functional, organism-based, Hepacivirus hominis; details: Huh-7, 48 h
Hepatitis C virus [14] = experiment: Ratio of EC50 for HCV genotype 1b expressing NS4B V105N mutant to EC50 for wild type HCV genotype 1b; assay type: functional, Hepacivirus hominis
Hepatitis C virus [15] = experiment: Antiviral activity against HCV genotype 1b expressing NS5A L31V mutant transiently infected in human HuH7 cells after 48 hrs by luciferase reporter gene assay; assay type: functional, organism-based, Hepacivirus hominis; details: Huh-7, 48 h
[16] = Oral bioavailability in beagle dog at 5 mg/kg; assay type: ADME, organism-based, Canis lupus familiaris; details: in vivo
Hepatitis C virus [17] = experiment: Antiviral activity against HCV genotype 1b expressing NS4B H94N mutant stably infected in human HuH7 cells after 48 hrs by luciferase reporter gene assay; assay type: functional, organism-based, Hepacivirus hominis; details: Huh-7, 48 h
[18] = Clearance in Sprague-Dawley rat at 1 mg/kg, iv; assay type: ADME, organism-based; design: dose 1 mg/kg, route intravenous; details: in vivo
[19] = AUC (0 to 24 hrs) in beagle dog at 5 mg/kg, po; assay type: ADME, organism-based, Canis lupus familiaris; design: time < 24 hr, dose 5 mg/kg, route oral; details: plasma
Hepatitis C virus [20] = experiment: Antiviral activity against HCV genotype 1b expressing NS4B V105L mutant transiently infected in human HuH7 cells after 48 hrs by luciferase reporter gene assay; assay type: functional, organism-based, Hepacivirus hominis; details: Huh-7, 48 h
[21] = Clearance in beagle dog at 1 mg/kg, iv; assay type: ADME, organism-based, Canis lupus familiaris; design: dose 1 mg/kg, route intravenous; details: in vivo
Hepatitis C virus [22] = experiment: Antiviral activity against HCV genotype 1b expressing NS3 A156T mutant transiently infected in human HuH7 cells after 48 hrs by luciferase reporter gene assay; assay type: functional, organism-based, Hepacivirus hominis; details: Huh-7, 48 h
Liver microsomes [23] = experiment: Drug metabolism in rat liver microsomes assessed as reactive metabolite formation at 10 uM after 30 mins by glutathione trapping assay; assay type: ADME, Microsome; details: 0.5 h
Hepatitis C virus [24] = experiment: Antiviral activity against HCV genotype 1b expressing NS4B H94R mutant transiently infected in human HuH7 cells after 48 hrs by luciferase reporter gene assay; assay type: functional, organism-based, Hepacivirus hominis; details: Huh-7, 48 h
Hepatitis C virus [25] = experiment: Antiviral activity against HCV genotype 1b expressing NS5B M414T mutant transiently infected in human HuH7 cells after 48 hrs by luciferase reporter gene assay; assay type: functional, organism-based, Hepacivirus hominis; details: Huh-7, 48 h
Hepatitis C virus [26] = experiment: Antiviral activity against HCV genotype 1b expressing NS4B F98L mutant transiently infected in human HuH7 cells after 48 hrs by luciferase reporter gene assay; assay type: functional, organism-based, Hepacivirus hominis; details: Huh-7, 48 h
Cytochrome P450 2C9 = Cytochrome P450 2C9 (Homo sapiens, UniProt P11712); experiment: Inhibition of CYP2C9 in human liver microsomes after 10 mins by LC/MS/MS analysis; assay type: ADME, Microsome
[27] = Volume of distribution at steady state in Sprague-Dawley rat at 1 mg/kg, iv; assay type: ADME, organism-based; design: dose 1 mg/kg, route intravenous; details: in vivo, read-out: Vdss
Hepatocyte [28] = experiment: Drug metabolism in human hepatocytes assessed as pendant cyclohexyl oxidation; assay type: ADME, cell-based
Hepatocyte [29] = experiment: Drug metabolism in rat hepatocytes assessed as pendant cyclohexyl oxidation; assay type: ADME, cell-based

Chain of Cytochrome P450 2C9 (P11712 whole entry): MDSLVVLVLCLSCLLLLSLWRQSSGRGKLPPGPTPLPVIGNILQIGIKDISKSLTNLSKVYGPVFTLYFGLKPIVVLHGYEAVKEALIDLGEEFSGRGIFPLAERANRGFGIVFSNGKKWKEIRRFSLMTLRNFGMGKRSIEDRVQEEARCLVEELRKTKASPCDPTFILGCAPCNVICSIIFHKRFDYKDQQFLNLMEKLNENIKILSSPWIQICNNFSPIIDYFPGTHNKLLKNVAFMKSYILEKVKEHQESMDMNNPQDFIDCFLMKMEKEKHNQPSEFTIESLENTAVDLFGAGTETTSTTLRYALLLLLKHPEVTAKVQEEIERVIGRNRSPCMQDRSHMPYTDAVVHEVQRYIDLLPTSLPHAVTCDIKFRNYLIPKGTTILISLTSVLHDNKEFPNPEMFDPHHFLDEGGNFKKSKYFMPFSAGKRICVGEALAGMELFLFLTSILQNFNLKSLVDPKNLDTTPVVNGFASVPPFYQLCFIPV
Chain of Cytochrome P450 3A4 (P08684 whole entry): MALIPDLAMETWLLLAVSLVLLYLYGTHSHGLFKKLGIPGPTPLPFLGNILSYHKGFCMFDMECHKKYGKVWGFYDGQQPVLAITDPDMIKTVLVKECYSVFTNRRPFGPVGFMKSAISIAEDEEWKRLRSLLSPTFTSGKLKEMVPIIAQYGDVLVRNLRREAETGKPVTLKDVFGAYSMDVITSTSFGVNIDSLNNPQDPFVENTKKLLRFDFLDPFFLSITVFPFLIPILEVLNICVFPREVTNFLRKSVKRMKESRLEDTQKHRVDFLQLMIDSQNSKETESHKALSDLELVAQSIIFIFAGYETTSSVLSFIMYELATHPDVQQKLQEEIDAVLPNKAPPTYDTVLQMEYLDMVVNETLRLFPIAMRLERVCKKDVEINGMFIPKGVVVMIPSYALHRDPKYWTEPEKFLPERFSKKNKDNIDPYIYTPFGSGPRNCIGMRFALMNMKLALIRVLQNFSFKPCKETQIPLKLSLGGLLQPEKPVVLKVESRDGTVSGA
Chain of Cytochrome P450 2D6 (P10635 whole entry): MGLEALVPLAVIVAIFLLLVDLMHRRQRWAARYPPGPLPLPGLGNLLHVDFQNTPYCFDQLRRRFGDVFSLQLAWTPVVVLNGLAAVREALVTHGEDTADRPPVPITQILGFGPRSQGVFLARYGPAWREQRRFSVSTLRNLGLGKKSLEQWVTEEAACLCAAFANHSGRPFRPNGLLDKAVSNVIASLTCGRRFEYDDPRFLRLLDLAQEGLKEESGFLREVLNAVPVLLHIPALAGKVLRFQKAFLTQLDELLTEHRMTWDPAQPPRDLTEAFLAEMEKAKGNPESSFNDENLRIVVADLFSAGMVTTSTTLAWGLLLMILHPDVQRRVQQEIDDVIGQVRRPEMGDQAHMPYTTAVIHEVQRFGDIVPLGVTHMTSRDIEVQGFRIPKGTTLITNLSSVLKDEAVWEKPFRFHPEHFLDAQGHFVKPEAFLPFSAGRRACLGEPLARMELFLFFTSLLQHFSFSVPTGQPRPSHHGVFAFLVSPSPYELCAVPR
Chain of Cytochrome P450 2C19 (P33261 whole entry): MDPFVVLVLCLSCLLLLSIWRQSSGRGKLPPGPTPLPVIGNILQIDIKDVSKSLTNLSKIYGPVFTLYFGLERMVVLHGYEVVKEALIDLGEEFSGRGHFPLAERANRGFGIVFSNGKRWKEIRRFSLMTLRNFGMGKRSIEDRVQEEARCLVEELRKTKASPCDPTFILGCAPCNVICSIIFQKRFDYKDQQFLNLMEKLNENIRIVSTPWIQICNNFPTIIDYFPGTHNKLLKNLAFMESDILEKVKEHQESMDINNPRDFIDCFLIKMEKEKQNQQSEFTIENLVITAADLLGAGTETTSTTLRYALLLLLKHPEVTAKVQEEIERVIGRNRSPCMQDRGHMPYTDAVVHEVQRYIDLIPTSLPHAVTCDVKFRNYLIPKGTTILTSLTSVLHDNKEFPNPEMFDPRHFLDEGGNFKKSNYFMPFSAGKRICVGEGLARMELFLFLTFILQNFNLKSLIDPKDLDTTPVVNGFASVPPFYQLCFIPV

O=C(c1nc2c(C(F)(F)F)cc(-c3ccoc3)cn2c1Cl)N1CCC(N2CCCC2)CC1
solubility [1]: > 500 µM | EC50 (Hepatitis C virus [2]): > 50000 nM | EC50 (Hepatitis C virus [3]): > 50000 nM | IC50 (Hepatitis C virus [4]): > 50000 nM

O=C(c1nc2c(C(F)(F)F)cc(-c3cn[nH]c3)cn2c1Br)N1CCC(c2cccs2)C1 (stereo not given)
EC50 (Hepatitis C virus [2]): < 55 nM | Kapp (Hepatitis C virus [5]): 76 nM | EC50 (Hepatitis C virus [3]): < 55 nM

O=C(c1nc2c(C(F)(F)F)cc(-c3ccoc3)cn2c1Cl)N1CCN(c2ccccc2)CC1
EC50 (Hepatitis C virus [2]): 450 nM | EC50 (Hepatitis C virus [3]): 1600 nM | IC50 (Hepatitis C virus [4]): 20 nM

O=C(c1nc2c(C(F)(F)F)cc(-c3ccoc3)cn2c1Cl)N1CCN([C@H]2CC[C@@H](O)CC2)C(=O)C1
solubility [1]: > 500 µM | EC50 (Hepatitis C virus [2]): 150 nM | EC50 (Hepatitis C virus [3]): 300 nM | IC50 (Hepatitis C virus [4]): 250 nM

O=C(c1nc2c(C(F)(F)F)cc(-c3ccoc3)cn2c1Cl)N1CCC(c2ccncc2)C1 (racemic)
EC50 (Hepatitis C virus [2]): 380 nM | EC50 (Hepatitis C virus [3]): 270 nM | IC50 (Hepatitis C virus [4]): 25 nM

O=C(c1nc2c(C(F)(F)F)cc(C3CC3)cn2c1Cl)N1CCN([C@H]2CC[C@H](O)CC2)C(=O)C1
Vd [6]: 0.9 L/kg | Drug metabolism (Liver microsomes [7]): Not Active | half-life [8]: 10 h | inhibition (INH) (Cytochrome P450 2C19): Not Active | AUC(0-t) at 24 h [9]: 3800 ng·h/mL | solubility [1]: > 500 µM | inhibition (INH) (Cytochrome P450 1A2): Not Active | bioavailability [10]: 98% | EC50 (Hepatitis C virus [2]): 0.81 nM | half-life [11]: 3 h | Ratio EC50 (Hepatitis C virus [12]): >100 | inhibition (INH) (Cytochrome P450 2D6): Not Active | inhibition (INH) (Cytochrome P450 3A4): Not Active | EC50 (Hepatitis C virus [13]): 800 nM | Ratio EC50 (Hepatitis C virus [14]): >100 | EC50 (Hepatitis C virus [15]): 1 nM | bioavailability [16]: 65% | EC50 (Hepatitis C virus [3]): 5.4 nM | EC50 (Hepatitis C virus [17]): 200 nM | clearance [18]: 20 mL/min/kg | AUC(0-t) at 24 h [19]: 52000 ng·h/mL | IC50 (Hepatitis C virus [4]): 60 nM | EC50 (Hepatitis C virus [20]): 38 nM | clearance [21]: 1.1 mL/min/kg | EC50 (Hepatitis C virus [22]): 1 nM | Drug metabolism (Liver microsomes [23]): Not Active | EC50 (Hepatitis C virus [24]): 53 nM | EC50 (Hepatitis C virus [25]): 1 nM | EC50 (Hepatitis C virus [26]): 27 nM | inhibition (INH) (Cytochrome P450 2C9): Not Active | Vd [27]: 4.1 L/kg

CC1(C)COC(=O)N1C1CCN(C(=O)c2nc3c(C(F)(F)F)cc(-c4ccoc4)cn3c2Cl)CC1
solubility [1]: > 500 µM | EC50 (Hepatitis C virus [2]): 33000 nM | EC50 (Hepatitis C virus [3]): 31000 nM | IC50 (Hepatitis C virus [4]): 9000 nM

O=C(NCc1cccs1)c1cc2nc(-c3ccco3)cc(C(F)(F)Cl)n2n1 [ANGUIZOLE]
EC50 (Hepatitis C virus [2]): 740 nM | EC50 (Hepatitis C virus [3]): 450 nM | IC50 (Hepatitis C virus [4]): 22 nM

O=C(c1nc2c(C(F)(F)F)cc(-c3ccoc3)cn2c1Cl)N1CCN(C2CCCCC2)C(=O)C1
Drug metabolism (Hepatocyte [28]): Active | solubility [1]: > 500 µM | EC50 (Hepatitis C virus [2]): 11 nM | EC50 (Hepatitis C virus [3]): 3.5 nM | IC50 (Hepatitis C virus [4]): 5.6 nM | Drug metabolism (Hepatocyte [29]): Active

O=C(c1nc2c(C(F)(F)F)cc(-c3ccoc3)cn2c1Cl)N1CCC(c2cccs2)C1 (racemic)
solubility [1]: < 15 µM | EC50 (Hepatitis C virus [2]): 770 nM | EC50 (Hepatitis C virus [3]): 67 nM | IC50 (Hepatitis C virus [4]): 12 nM
